Test system: Angiogenesis
Assay: Inhibition of angiogenesis by fatty acid samples
Assay type: cell-based
From the text: The phospholipid fatty acids usually include docosahexaenoic acid (DHA), arachidonic acid (AA), eicosapentaenoic acid (EPA), and others.

Structure (SMILES): CCCCC/C=C\C/C=C\C/C=C\C/C=C\CCCC(=O)O [Arachidonic, arachidonic acid]
- inhibition at 5 µg/mL (sample concentration 5 μg/ml): 84%

Structure (SMILES): CCCCC/C=C\C/C=C\CCCCCCCC(=O)O [Linoleic]
- Inhibition of Angiogenesis (sample concentration 5 μg/ml): 82%

Structure (SMILES): CC/C=C\C/C=C\C/C=C\CCCCCCCC(=O)O [α-Linolenic]
- Inhibition of Angiogenesis (sample concentration 20 μg/ml): 66%

Structure (SMILES): CCCCCCCC/C=C\CCCCCCCCCCCC(=O)O [Erucic]
- Inhibition of Angiogenesis (sample concentration 200 μg/ml): 30%

Structure (SMILES): CC/C=C\C/C=C\C/C=C\C/C=C\C/C=C\C/C=C\CCC(=O)O [Docosahexaenoic (DHA), docosahexaenoic acid]
- inhibition at 5 µg/mL (sample concentration 5 μg/ml): 88%

Structure (SMILES): CCCCCCC=CCCCCCCCCC(=O)O [Heptadecenoic]
- Inhibition of Angiogenesis (sample concentration 20 μg/ml): 83%

Structure (SMILES): CCCCCCCC/C=C\CCCCCCCC(=O)O [Oleic, oleic acid]
- inhibition at 100 µg/mL (read-out: Inhibition of Angiogenesis): 0%

Structure (SMILES): CCCCCCCCCCC/C=C\CCCCC(=O)O [Petroselenic]
- Inhibition of Angiogenesis (sample concentration 100 μg/ml): 58%

Structure (SMILES): CCCCCC/C=C\CCCCCCCC(=O)O [Palmitoleic]
- Inhibition of Angiogenesis (sample concentration 5 μg/ml): 70%

Structure (SMILES): CC/C=C\C/C=C\C/C=C\C/C=C\C/C=C\CCCC(=O)O [Eicosapentaenoic (EPA), eicosapentaenoic acid]
- inhibition at 3 µg/mL (sample concentration 3 μg/ml): 100%

Structure (SMILES): CCCC/C=C\CCCCCCCC(=O)O [Myristoleic]
- Inhibition of Angiogenesis (sample concentration 10 μg/ml): 58%

Structure (SMILES): CCCCCCCC/C=C\CCCCCCCCCCCCCC(=O)O [Nervonic]
- Inhibition of Angiogenesis (sample concentration 100 μg/ml): 0%

Structure (SMILES): CC/C=C\C/C=C\C/C=C\C/C=C\C/C=C\CCCCCC(=O)O [Docosapentaenoic]
- Inhibition of Angiogenesis (sample concentration 4 μg/ml): 71%
